From US20200172530A1, “Small Molecule Sensitization of BAX Activation for Induction of Cell Death” (Dana-Farber Cancer Institute, Inc., priority 2017, published 2020) come the findings set out here.

The nature of one data set: Dynamic light scattering. It counts as physicochemical. The following applies: 20 mM potassium phosphate buffer, pH 6.2. The method, then:
Samples were measured at room temperature on a DynaPro-99 instrument with a 90° detector angle using a 10 second acquisition time per measurement. Compounds were diluted from a 100 mM stock in 20 mM potassium phosphate buffer, pH 6.2 with 1% DMSO final concentration.

Data set [1] can be described thus: NMR-based detection of small molecule aggregators. It counts as physicochemical. To be noted: 20 mM potassium phosphate buffer, pH 6.2, 10% D2O. The protocol:
To detect line broadening, standard ^1H-NMR spectra were acquired. T2 decay curves were generated by measuring the CPMG NMR spectra of the molecules, performed as described above. The number of echo cycles corresponds to the decay time. The intensity of the aromatic peaks at the indicated decay times were measured and normalized to a maximum intensity of 1 at the 10 ms decay time. The curves were fitted to a one phase decay model using Prism software (Graphpad). Excitation sculpting was used for solvent suppression. Samples for both analyses were prepared in 20 mM potassium phosphate buffer, pH 6.2, 10% (v/v) D2O. Results of these measurements are described in FIGS. 12-13.

A further data set addresses T1, BAX (Homo sapiens, UniProt Q07812).
T1 construct: Recombinant, full-length BAX was expressed in BL21 (DE3) E. coli using the pTYB1 vector; made in house; host or cells: E. coli BL21 (DE3)
The data set is described as follows: Liposomal release assay (ANTS/DPX). The data set is classed as biochemical.

Data set [2] addresses T2, recombinant, full length BAX (Homo sapiens, UniProt Q07812).
T2 construct: made in house; host or cells: E. coli BL21 (DE3)
Kind of data set: Fluorescence polarization assay (direct and competitive). It counts as binding. To be noted: FITC-peptide 25 nM, BAX 250 nM. The protocol:
FITC-peptide (25 nM) was incubated with a serial dilution of recombinant, full length BAX in binding buffer (20 mM Potassium phosphate, pH 6.2). For competitive FP, FITC-peptide (25 nM) was mixed with a fixed concentration of BAX (250 nM) and incubated with a serial dilution of acetylated peptide or a compound described herein. Fluorescence polarization was measured at equilibrium using a SpectraMax M5 microplate reader. Nonlinear regression analysis of dose-response curves was performed using Prism software 7 (GraphPad).
A general note: Fluorescence polarisation rises when a labelled molecule tumbles more slowly, as on binding a larger partner.

T1 sequence (Q07812 whole entry): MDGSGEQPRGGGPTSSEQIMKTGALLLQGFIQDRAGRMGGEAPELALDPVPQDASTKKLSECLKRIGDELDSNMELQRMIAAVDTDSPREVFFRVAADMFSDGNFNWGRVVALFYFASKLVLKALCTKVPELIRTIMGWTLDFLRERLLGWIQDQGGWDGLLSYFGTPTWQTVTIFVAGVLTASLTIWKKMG
T2 sequence (Q07812 whole entry): as above

Turning to `Nc1ccc(Nc2ccccc2)cc1` [4-ADPA], the “light scattering (aggregation in solution)” value (“light scattering” for short) in the data set “Dynamic light scattering” was “dose-dependent increase in light scattering”. Moreover, in data set [1], the “T2 decay (aggregation)” value is recorded as “rapid T2 decay”.
Take `Oc1ccc(Oc2ccccc2)cc1` [BIF-44]: in “Dynamic light scattering”, the “light scattering” value was “does not aggregate in solution”. Further, in data set [1], the “T2 decay (aggregation)” value was “does not exhibit rapid or dose dependent decrease in T2 decay” and the “line broadening in 1H-NMR spectrum (aggregation)” value is given as “does not exhibit line broadening”.
In the case of `O=C1C(I)=CC(=C(c2cc(I)c(O)c(I)c2)c2ccccc2C(=O)O)C=C1I` [I4PTH], the “light scattering” value in “Dynamic light scattering” is reported as “dose-dependent increase in light scattering”.
Regarding “BIM SAHBA2: stapled BIM BH3 helix (aa 145-164), Ac-EIWIAQELRXIGDXFNAYYA-CONH2, X=stapling amino acid; direct BAX activator positive control”, the “maximal BAX-mediated liposomal release” value in the data set with BAX (BIM SAHBA2 alone with BAX) is reported as 50%. The “direct BAX activation in liposomal release” value with BAX (single agent with BAX) is “induced time-responsive liposomal release”. Further, the “competition with FITC-BIM SAHBA2 for BAX interaction” value in data set [2] is listed as “dose-responsively competed”.
